{
  "source": "paper PMC12299847",
  "about": "“Macroalgae-Inspired Brominated Chalcones as Cosmetic Ingredients with the Potential to Target Skin Inflammaging” (Marine Drugs, 2025)",
  "key": {"[1]": {"test_system": "NO production in LPS-stimulated RAW 264.7 macrophages", "assay": "NO production (Griess assay) in LPS-stimulated macrophages", "assay_type": "cell-based, murine", "conditions": "RAW 264.7, LPS 100 ng/mL; for IC50: Mus musculus, RAW264.7, 24 h, Griess", "experimental": "The anti-inflammatory potential of chalcones 1–7 was evaluated in macrophages cultured in the presence or absence (control) of LPS, as depicted in Figure 4. Under basal conditions (unstimulated, control), macrophages produce low levels of nitrites (≈12%). […] Each chalcone was tested at concentrations previously established as non-cytotoxic in macrophages, trying to ensure that observed changes in NO levels were not due to reduced cell viability.\nThe production of NO was evaluated by measuring nitrite accumulation in culture supernatants using the previously described Griess assay. Cells were seeded at a concentration of 5.0 × 10^4 cells/mL in a 96-well plate (200 μL/well) and allowed to stabilize overnight at 37 °C. Afterwards, the cells were treated with different concentrations of compound solutions and pre-incubated for 1 h at 37 °C. Subsequently, an LPS in PBS solution was added to each well, achieving a final concentration of 100 ng/mL, and the plate was left to incubate for 24 h. An amount of 150 μL of the cell culture supernatant was then transferred to a fresh 96-well plate, and an equal amount of Griess reagent [comprising a 1:1 mixture of 1% (w/v) sulphanilamide in 5% (v/v) phosphoric acid and 0.1% (w/v) naphthylethylenediaminedihydrochloride] was added. Following a 30 min incubation at room temperature in the dark, the absorbance was recorded at 550 nm using a Biotek Synergy HT plate reader (Biotek, CA, USA). The nitrite concentration in the supernatants was determined by comparing the absorbance of each sample to a sodium nitrite standard curve. The results, obtained from at least three independent experiments performed in duplicate, were expressed as a percentage of NO production by cells versus chemical concentration, relative to LPS condition (100%).\nFigure 4 NO production by macrophages treated with LPS (100 ng/mL) or not (control) in the presence of chalcones 1–7. Results are expressed as a percentage of NO production by cells treated with LPS (100 ng/mL). Each value represents the mean ± SEM of four independent experiments in duplicate. Statistical analysis: one ANOVA with Dunnett’s multiple comparisons test, where p< 0.05 was considered significant. *** p < 0.005, relative to the control, and ^# p < 0.05, ^## p < 0.01, ^### p < 0.0005, and ^#### p < 0.0001, relative to LPS condition."}, "[2]": {"test_system": "iNOS protein levels in RAW264.7 macrophages", "assay": "Western blot analysis of iNOS expression in LPS-stimulated macrophages", "assay_type": "cell-based, murine", "conditions": "for iNOS expression level: normalized against LPS condition", "experimental": "To investigate the underlying mechanism of action of the most promising brominated chalcones (1 and 2), their effects on iNOS protein levels were assessed in LPS-stimulated macrophages at different time points (4, 6, and 24 h). The non-treated (NT) condition, consisting of macrophages stimulated with LPS but receiving no chalcone treatment, was used as the reference for maximal iNOS induction under inflammatory conditions and served as a positive control. The selected concentrations (7.5 μM and 15 μM) were selected based on chalcones 1 and 2 cytocompatibility (Figure 3) and efficacy in reducing NO production (Figure 4). Since NO production is a direct consequence of iNOS enzymatic activity, where the enzyme catalyzes the conversion of L-arginine to NO following inflammatory stimulation such as LPS, this provides a functional readout of iNOS expression and activity.\nHere, we focused on validating iNOS expression at the protein level by western blot (Figure 6). While gene-level expression was not assessed, it is well established that LPS stimulation induces both iNOS transcription and translation in RAW 264.7 macrophages. Moreover, changes observed at the protein level are often closely associated with upstream transcriptional or translational modulation. Therefore, quantifying iNOS protein levels provides a biologically relevant measure of the chalcones’ inhibitory effects on this key inflammatory mediator.\nThe expression of the iNOS enzyme was analyzed by western blot. RAW264.7 macrophages were seeded at a density of 1 × 10^6 cells/well in a 6-well plate and incubated for 24 h at 37 °C in a humidified atmosphere containing 5% CO2. After incubation, cells were treated with 7.5 µM or 15 µM of the most promising chalcones (1 and 2) for 30 min, followed by the addition of LPS to have a final concentration of 100 ng/mL. Cells were then incubated for 4, 6, or 24 h. At each time point, cells were washed with PBS and lysed in RIPA buffer. The lysates were collected in Eppendorf tubes and kept on ice, with intermittent vortexing to ensure thorough lysis. Samples were centrifuged at 18,000× g for 16 min at 4 °C, and the supernatant was collected. Total protein concentration was determined using the Pierce™ BCA Protein Assay Kit (Thermo Scientific, 23225, Waltham, MA, USA), following the manufacturer’s instructions. Equal amounts of protein (25 µg) were loaded onto Bolt™ 8% Bis-Tris Mini Protein Gels (Invitrogen™, NW00087BOX, Waltham, MA, USA) and separated via electrophoresis. Proteins were then transferred onto nitrocellulose membranes (Invitrogen™, IB24002) using the iBlot® 2 dry transfer system (Invitrogen™, Waltham, MA, USA). After transfer, membranes were sectioned to separate the iNOS bands from those of the housekeeping protein GAPDH. Membranes were blocked for 1 h at room temperature in TBS-T containing 5% BSA and subsequently incubated overnight at 4 °C with primary antibodies against iNOS (Cell Signaling Technology, 16713120S, Danvers, MA, USA) or GAPDH (Abcam, ab181602, Cambridge, UK), diluted in TBS-T with 1% BSA. On the following day, membranes were washed three times with TBS-T and incubated for 1 h at room temperature with an HRP-conjugated secondary antibody (Cell Signaling Technology, 7074S) diluted in TBS-T with 1% BSA. After three additional washes, signal detection was performed using Clarity™ Western ECL Substrate (Bio-Rad, 1705061, Hercules, CA, USA), and chemiluminescent signals were acquired using the Odyssey FC imaging system (LI-COR, Lincoln, NE, USA). Densitometric analysis of iNOS bands was performed using Image Studio™ Software (version 5.2, LI-COR, Lincoln, NE, USA), with values normalized to the corresponding GAPDH bands.\nFigure 6 iNOS expression level after treatment of 4, 6, and 24 h with chalcones 1 and 2 in macrophage cell line. Results are expressed as volume arbitrary unit (A). […]"}, "[3]": {"assay": "Resazurin cell viability assay in HaCaT keratinocytes", "assay_type": "cell-based, human", "conditions": "human, HaCaT keratinocytes, resazurin, read-out: IC50 (cell viability, cytotoxicity)", "experimental": "(§1) To evaluate the effects of chalcones 1–7 on cell viability after 24 h, a resazurin assay was performed using two cell lines: human HaCaT keratinocytes (HaCaT, CLS 300493), representing the epidermal layer, and murine RAW 264.7 macrophages (RAW 264.7, ATCC TIB-71), which model immune cells involved in dermal inflammatory responses. For the keratinocyte cell line, all seven brominated and non-brominated chalcones were tested across a concentration range from 2.5 μM to 125 μM (Figure 2).\n(§2) Human keratinocytes (HaCaT, CLS 300493, Eppelheim, Germany) were cultured in DMEM supplemented with heat-inactivated FBS, and a penicillin and streptomycin antibiotic solution. The cell culture of keratinocytes was washed with 6 mL of phosphate buffer solution with 0.05% EDTA (Sigma-Aldrich, St. Louis, MO, USA) and detached using 3 mL of 0.05% trypsin + 0.02% EDTA in PBS solution when the cells reached 70–80% confluence in cell culture flasks. DMEM was also used to cultivate the mouse macrophage cell line (RAW 264.7, ATCC TIB-71, Manassas, VA, USA) together with 10% (v/v) non-inactivated FBS, 1.5 g/L sodium bicarbonate, and 100 U/mL penicillin and 100 μg/mL streptomycin stock (antibiotic solution). The macrophage culture was mechanically detached using a cell scraper, and the final amount of DMEM media with the cells was sub-cultured in a 1:10 ratio to the cellular suspension.\n(§3) The resazurin reduction assay was employed to evaluate the metabolic activity of human epidermal keratinocyte (HaCaT) and murine macrophage (RAW264.7) cell lines, as outlined in a previous study. In brief, HaCaT cells (1.0 × 10^5 cells/mL) and RAW264.7 cells (5.0 × 10^4 cells/mL) were seeded in 96-well plates (200 μL/well) and incubated overnight at 37 °C to allow for cell attachment. Following this, the cells were treated with different concentrations of the test compounds and kept at 37 °C for 24 h. After 20 h, resazurin (500 μM in sterile phosphate buffer solution, pH 7.4) was added to each well to achieve a final concentration of 50 μM, followed by an additional incubation of 4 h. Absorbance was then measured at wavelengths of 570 and 620 nm using a SpectraMax Plus 384 absorbance microplate spectrophotometer (Molecular Devices, San Jose, CA, USA). Each experiment was conducted in triplicate, with a minimum of three independent assays. The results were graphically presented as the percentage of cell viability versus chemical concentration, relative to the control.\n(§4) Figure 2 Cytotoxicity of chalcones 1–7 using a resazurin reduction assay in HaCaT cells by comparison with the control. Bar graphs represent the mean ± SEM of at least three independent experiments performed in triplicate. Statistical analysis: one ANOVA with Dunnett’s multiple comparisons test, where p < 0.05 was considered significant when compared to the control condition. * p < 0.05, ** p < 0.01, and *** p < 0.0005."}, "HaCaT keratinocytes": {"test_system": "HaCaT keratinocytes", "assay": "Resazurin cell viability assay in HaCaT keratinocytes", "assay_type": "cell-based, human", "conditions": "HaCaT, 24 h", "experimental": "as §1, §2, §3, §4"}, "Nrf2": {"test_system": "Nrf2", "assay": "KeratinoSens assay, Nrf2 luciferase reporter", "assay_type": "cell-based, human", "conditions": "100 µM, positive control", "experimental": "The KeratinoSens™ assay was originally developed to assess the skin sensitization potential of Nrf2 activation, but it has also been utilized to evaluate the ability of natural compounds to induce this transcription factor [46, 47]. In this study, we assessed the capacity of chalcones 1 and 2 to activate Nrf2 after 24 and 48 h (Figure 8A–F).\nSelected compounds (chalcones 1 and 2), and the positive control, DMF, were dissolved in sterile DMSO. Intermediate dilutions were prepared in culture medium, including the final concentration to be added to the 96-well plate, with a final volume of 200 µL per well. The KeratinoSens™ assay was conducted as previously described. In brief, cells were seeded at a density of 10,000 cells per well in 96-well white opaque plates (Greiner Bio-One GmbH, cat. no. 655083, Kremsmünster, Austria) and incubated for 24 h. The medium was then replaced with fresh medium containing 1% FBS and the test compounds, and cells were incubated for an additional 24 and 48 h. DMF was used as the positive control since it is a known Nrf2 activator. Cell viability was assessed in the same cells using resazurin. After 20 or 44 h of exposure to the test compounds, 50 µM of resazurin solution (in sterile PBS) was added to each well, and the plates were incubated for 4 h at 37 °C, 5% CO2 Following the resazurin incubation, the supernatant was transferred to a transparent 96-well plate, and absorbance was measured at 570 and 620 nm using a Synergy HT multi-mode microplate reader (BioTek, Bad Friedrichshall, Germany). To measure luciferase activity, cells in the white opaque 96-well plates were washed with 1× PBS. An equal volume of 1× PBS and lysis buffer (One-GLO Luciferase, cat. no. E6130, Promega, Madison, WI, USA) was added to the wells, and the plates were incubated for 20 min at room temperature. Luminescence was then measured using a FLUOstar OMEGA Microplate Reader (BMG Labtech GmbH, Ortenberg, Germany).\nFigure 8 Nrf2 activation using the KeratinoSens™ assay in HaCaT cells transfected with an Nrf2 luciferase reporter construct, incubated for 24 h (A–C) or 48 h (D–F) with chalcones 1 and 2. DMF was used as a positive control. Data represent the results from four independent experiments. Non-linear regression analysis was performed using GraphPad Prism v.9.0.0 for Windows. The blue line represents the results of cell viability (% regarding the control) and the green line represents fold induction. Statistical analysis: one ANOVA with Dunnett’s multiple comparisons test, where significance includes. * p < 0.05, ** p < 0.01, *** p < 0.0005, and **** p < 0.0001."}},
  "note": "Where a name gives a salt, the structure may show the parent alone.",
  "data": [
    {"compound": "COc1ccc(/C=C/C(=O)c2cc(OC)c(OC)cc2Br)cc1OC", "note": "[Chalcone 2]", "values": [
      {"measurement": "IC50", "setting": "[1]", "value": "0.77 ± 0.31", "unit": "µM"},
      {"measurement": "iNOS expression level", "setting": "[2]; 7.5 µM, 4 h", "value": 38.9, "unit": "%"},
      {"measurement": "maximum iNOS suppression", "setting": "[2]; 7.5 µM, 24 h", "value": "~ 80%"},
      {"measurement": "iNOS expression level", "setting": "[2]; 7.5 µM, 24 h", "value": 20.2, "unit": "%"},
      {"measurement": "iNOS expression level", "setting": "[2]; 15 µM, 4 h", "value": 20.5, "unit": "%"},
      {"measurement": "iNOS expression level", "setting": "[2]; 15 µM, 6 h", "value": 5.7, "unit": "%"},
      {"measurement": "iNOS suppression", "setting": "[2]; 15 µM, 6 h, stable up to 24 h", "value": "~ 95%"},
      {"measurement": "iNOS expression level", "setting": "[2]; 15 µM, 24 h", "value": 6.1, "unit": "%"}
    ]},
    {"compound": "COc1ccc(/C=C/C(=O)c2ccc(OC)c(OC)c2)cc1OC", "note": "[Chalcone 3]", "values": [
      {"measurement": "IC50 at 24 h", "setting": "[3]", "value": "62.1 ± 1.07", "unit": "µM"},
      {"measurement": "reduction in cell viability", "setting": "HaCaT keratinocytes; at 62.5 and 125 μM", "value": "> 50", "unit": "%"},
      {"measurement": "IC50", "setting": "[1]", "value": "4.73 ± 0.67", "unit": "µM"},
      {"measurement": "concentration that reduced NO production to levels similar to the control", "setting": "[1]; 24 h", "value": 125, "unit": "µM"}
    ]},
    {"compound": "COc1ccc(/C=C2\\CCc3cc(OC)c(OC)cc3C2=O)cc1OC", "note": "[Chalcone 7]", "values": [
      {"measurement": "maximal reduction in viability", "setting": "HaCaT keratinocytes; significant effects only at 62.5 μM and 125 μM", "value": "≤ 15", "unit": "%"},
      {"measurement": "reduction of NO production in LPS-stimulated cells", "setting": "[1]; 24 h", "value": 12, "unit": "%"}
    ]},
    {"compound": "COC(=O)/C=C/C(=O)OC", "note": "[DMF, dimethyl fumarate, reference compound]", "values": [
      {"measurement": "Nrf2 activation, fold increase", "setting": "Nrf2", "value": 8.36, "unit": "fold"}
    ]}
  ]
}
